Reference: patent publication US12178808B2, “Amorphous solid dispersion comprising 6-(1-acryloylpiperidin-4-yl)-2-(4-phenoxyphenyl)nicotinamide” (BEIJING INNOCARE PHARMA TECH CO., LTD., priority 2018, dated 2024)
Values after ≈ are worked out from the molar mass of the structure shown.

Assays:
[1] = Bioavailability of Type F crystalline form; conditions: in vivo
From the text: Type F is a stable crystalline form and is useful as an active pharmaceutical ingredient (API) for a pharmaceutical formulation. However, its dissolution is slow and bioavailability is low (20%).

[2] = format: physicochemical; conditions: 24 h
[3] = Dissolution in fasted-state simulated intestinal fluid (FaSSIF); format: physicochemical
Method: 10 mg of accurately weighted samples of Type A and Type F, and 50 mg of HPMCAS-20-SDD (ASD with 20% drug loading made via spray-drying dispersion, see Example 3) were each added to 20 mL of fasted-state simulated intestinal fluid (FaSSIF) solution (pH 6.5) in a 50-mL centrifuge tube. The tube was placed in a shaker and kept shaking with 100 rpm at 37° C. At different time intervals (10, 30, 60, 120, 240 min), 350 μL suspension was removed and centrifuged at 13,000 rpm for 3 minutes to give a clear solution that was then analyzed by HPLC.
Samples of HPMCAS-20-SDD, HPMCAS-40-SDD, HPMCAS-60-SDD, PVPVA-20-HME were tested for dissolution according to the protocols of Example 5.

[4] = Glass transition temperature by DSC; format: physicochemical; conditions: DSC 0 to 180° C. at 10° C./min
Method: Accurately weighted samples (containing 5 mg of Compound I. see Table 3) were prepared according to the protocols of Examples 3 and 4, except varying the polymer and the drug amount. The examples were each placed in a DSC pan (TA Instruments), which was then sealed and placed in a TA Instruments Q2000. The pan was heated at 105° C. for 3 minutes and then rapidly cooled to 0° C. for 1 minute. The DSC analysis was carried out between 0 to 180° C. at a rate of 10° C./min.

Compound	bioavailability [1] [%]	solubility [2] [µg/mL]	dissolution ([3]; general statement on the crystalline form)	Tg [4] [°C]	dissolution in FaSSIF (comparison) ([3]; FaSSIF pH 6.5, 37° C., 100 rpm, 10-240 min)
C=CC(=O)N1CCC(c2ccc(C(N)=O)c(-c3ccc(Oc4ccccc4)cc3)n2)CC1 [Type F, 6-(1-acryloylpiperidin-4-yl)-2-(4-phenoxyphenyl)nicotinamide]	20	4 (≈ 9.36 µM)	slow	–	–
C=CC(=O)N1CCC(c2ccc(C(N)=O)c(-c3ccc(Oc4ccccc4)cc3)n2)CC1 [Type A, 6-(1-acryloylpiperidin-4-yl)-2-(4-phenoxyphenyl)nicotinamide]	–	13 (≈ 30.4 µM)	–	69.4	better than Type F's
